# Assay results taken from patent US20250230193A1, “CYCLIC COMPOUND HAVING SELECTIVE KRAS INHIBITORY EFFECT ON HRAS AND NRAS” (CHUGAI SEIYAKU KABUSHIKI KAISHA, priority 2022, published 2025).
# *1 amine or outer side, *2 acyl side, *3 side chain or, on linkers, in order; H or OH if unused. Where a SMILES comes first, the peptide text is derived from it. Bridges are numbered along the chain shown (N, C = ends). [ ]: non-standard residue; d: D form. The star is where a group is joined. hPhe(3,5-F2-4-CF3) = N[C@@H](CCc1cc(F)c(C(F)(F)F)c(F)c1)C(=O)O; hPhe(3-Cl-4-CF3) = N[C@@H](CCc1ccc(C(F)(F)F)c(Cl)c1)C(=O)O; NPrPhe(4-CF3) = CCCN[C@@H](Cc1ccc(C(F)(F)F)cc1)C(=O)O; X20 = CCCN([C@@H](CC1CCC(F)(F)CC1)C(=O)[*:2])[*:1]; NMeGly(cPent) = CN[C@H](C(=O)O)C1CCCC1; αMeI = CC[C@H](C)[C@](C)(N)C(=O)O; NMeD = CN[C@@H](CC(=O)O)C(=O)O; NMeL = CN[C@@H](CC(C)C)C(=O)O; Morpholide = C1CN(*)CCO1; NMeA = CN[C@@H](C)C(=O)O; Ac5c = NC1(C(=O)O)CCCC1; Aze = O=C(O)[C@@H]1CCN1; Sar = CNCC(=O)O
# What was measured:
# [1] = target: GDP-bound HRAS wild-type protein (Homo sapiens, UniProt P01112); experiment: Binding to HRAS by surface plasmon resonance (SPR), Single Cycle Kinetics; settings: for HRAS/KRAS (ratio of KD value with respect to HRAS to KD value with respect to KRAS): GDP-bound HRAS wild-type vs GDP-bound KRAS wild-type
# Chain of GDP-bound HRAS wild-type protein (P01112 whole entry): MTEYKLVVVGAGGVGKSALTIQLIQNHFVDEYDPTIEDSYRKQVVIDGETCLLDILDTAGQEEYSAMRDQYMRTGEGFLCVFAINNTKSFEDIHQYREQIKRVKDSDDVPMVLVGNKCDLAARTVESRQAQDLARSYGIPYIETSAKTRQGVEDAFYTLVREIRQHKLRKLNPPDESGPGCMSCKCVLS
# [2] = target: GDP-bound NRAS wild-type protein (Homo sapiens, UniProt P01111); experiment: Binding to NRAS by surface plasmon resonance (SPR), Single Cycle Kinetics; settings: for NRAS/KRAS (ratio of KD value with respect to NRAS to KD value with respect to KRAS): GDP-bound NRAS wild-type vs GDP-bound KRAS wild-type
# Chain of GDP-bound NRAS wild-type protein (P01111 whole entry): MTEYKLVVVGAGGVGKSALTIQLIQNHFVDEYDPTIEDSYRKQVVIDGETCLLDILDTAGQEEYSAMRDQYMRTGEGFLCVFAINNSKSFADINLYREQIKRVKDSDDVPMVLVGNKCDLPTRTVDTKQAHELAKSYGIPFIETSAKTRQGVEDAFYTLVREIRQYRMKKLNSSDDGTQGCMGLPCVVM
smiles,measurement,setting,value
CCO[C@@H]1C[C@H]2C(=O)NC3(CCC3)C(=O)N(C)[C@@H](C3CCCC3)C(=O)N(C)[C@H](C(=O)N3CCOCC3)CC(=O)N(C)[C@@H](Cc3ccc(F)c(F)c3)C(=O)N[C@@H]([C@@H](C)CC)C(=O)N(C)CC(=O)N(C)[C@H]3CCCCCN(C3=O)[C@@H](Cc3ccc(C(F)(F)F)cc3)C(=O)N(C)CC(=O)N[C@@H](CCc3cc(F)c(C(F)(F)F)c(F)c3)C(=O)N2C1 [PP0928],HRAS/KRAS (ratio of KD value with respect to HRAS to KD value with respect to KRAS),[1]; SPR,B (a compound having 3 or more and less than 10 is denoted as B)
same,NRAS/KRAS (ratio of KD value with respect to NRAS to KD value with respect to KRAS),[2]; SPR,A (a compound having 10 or more and less than 20 is denoted as A)
CC[C@H](C)[C@@H]1NC(=O)[C@H](CC(C)C)N(C)C(=O)C[C@@H](C(=O)N2CCOCC2)N(C)C(=O)[C@H](C2CCCC2)N(C)C(=O)C2(CCCC2)NC(=O)[C@@H]2CCCN2C(=O)[C@H](CCc2cc(F)c(C(F)(F)F)c(F)c2)NC(=O)CN(C)C(=O)[C@H](Cc2ccc(C(F)(F)F)cc2)N2CCCCC[C@@H](C2=O)N(C)C(=O)[C@@H]2CCCN2C1=O [PP0485],HRAS/KRAS (ratio of KD value with respect to GDP-bound HRAS wild-type protein to KD value with respect to KRAS),[1]; SPR,B (a compound having 3 or more and less than 10 is denoted as B)
same,NRAS/KRAS (ratio of KD value with respect to GDP-bound NRAS wild-type protein to KD value with respect to KRAS),[2]; SPR,A (a compound having 10 or more and less than 20 is denoted as A)
"CCCN1C(=O)CN(C)C(=O)CN(C)C(=O)[C@H]([C@@H](C)CC)NC(=O)[C@H](CC(C)C)N(C)C(=O)C[C@@H](C(=O)N(C)C)N(C)C(=O)[C@H](C2CCCC2)N(C)C(=O)[C@](C)([C@@H](C)CC)NC(=O)[C@@H]2CCCN2C(=O)[C@H](CCc2cc(F)c(C(F)(F)F)c(F)c2)NC(=O)CN(C)C(=O)[C@@H]1Cc1ccc(C(F)(F)F)cc1 [PP0736] ([NMeL]I[Sar][Sar][NPrPhe(4-CF3)][Sar][hPhe(3,5-F2-4-CF3)]P[αMeI][NMeGly(cPent)][NMeD]-NMe2; lactam N-11)",HRAS/KRAS (ratio of KD value with respect to GDP-bound HRAS wild-type protein to KD value with respect to KRAS),[1]; SPR,C (A compound having a KD ratio of 0.1 or more and less than 3 is denoted as C)
same,NRAS/KRAS (ratio of KD value with respect to GDP-bound NRAS wild-type protein to KD value with respect to KRAS),[2]; SPR,B (a compound having 3 or more and less than 10 is denoted as B)
CCCN1C(=O)[C@@H]2CCN2C(=O)[C@H](C)N(C)C(=O)[C@H]([C@@H](C)CC)NC(=O)[C@H](CC(C)C)N(C)C(=O)C[C@@H](C(=O)N2CCOCC2)N(C)C(=O)[C@H](C2CCCC2)N(C)C(=O)C2(CCCC2)NC(=O)[C@@H]2CCCN2C(=O)[C@H](CCc2ccc(C(F)(F)F)c(Cl)c2)NC(=O)CN(C)C(=O)[C@@H]1CC1CCC(F)(F)CC1 [PP0527] ([NMeL]I[NMeA][Aze][X20][Sar][hPhe(3-Cl-4-CF3)]P[Ac5c][NMeGly(cPent)][NMeD]-Morpholide; lactam N-11),HRAS/KRAS (ratio of KD value with respect to GDP-bound HRAS wild-type protein to KD value with respect to KRAS),[1]; SPR,C (A compound having a KD ratio of 0.1 or more and less than 3 is denoted as C)
same,NRAS/KRAS (ratio of KD value with respect to GDP-bound NRAS wild-type protein to KD value with respect to KRAS),[2]; SPR,C (A compound having a KD ratio of 0.1 or more and less than 3 is denoted as C)
CCO[C@@H]1C[C@H]2C(=O)NC3(CC(C)(C)C3)C(=O)N(C)[C@@H](CC(C)(C)C)C(=O)N(C)[C@H](C(=O)N(C)C)CC(=O)N(C)[C@@H](COC)C(=O)N[C@@H]([C@@H](C)CC)C(=O)N(C3CC3)CC(=O)N(C)[C@H]3C/C=C\CCN(C3=O)[C@@H](Cc3ccc(C(F)(F)F)cc3)C(=O)N(C)CC(=O)N[C@@H](CCc3ccc(Cl)c(Cl)c3)C(=O)N2C1 [PP2750],HRAS/KRAS (ratio of KD value with respect to GDP-bound HRAS wild-type protein to KD value with respect to KRAS),[1]; class symbols,A (a compound having 10 or more and less than 20 is denoted as A)
same,NRAS/KRAS (ratio of KD value with respect to GDP-bound NRAS wild-type protein to KD value with respect to KRAS),[2]; class symbols,AA (a compound having 20 or more is denoted as AA)
CCO[C@@H]1C[C@H]2C(=O)NC3(CCC3)C(=O)N(C)[C@@H](CC(C)C)C(=O)N(C)[C@H](C(=O)N(C)C)CC(=O)N(C)[C@@H](CC)C(=O)N[C@@H]([C@@H](C)CC)C(=O)N(C)CC(=O)N(C)[C@H]3C/C=C\CCN(C3=O)[C@@H](Cc3ccc(C(F)(F)F)cc3)C(=O)N(C)CC(=O)N[C@@H](CCc3cc(F)c(C(F)(F)F)c(F)c3)C(=O)N2C1 [PP1089],HRAS/KRAS (ratio of KD value with respect to HRAS to KD value with respect to KRAS),[1]; SPR,A (a compound having 10 or more and less than 20 is denoted as A)
same,NRAS/KRAS (ratio of KD value with respect to NRAS to KD value with respect to KRAS),[2]; SPR,AA (a compound having 20 or more is denoted as AA)
CCC(CC)[C@H]1C(=O)N(C)[C@H](C(=O)N2CCCCC2)CC(=O)N(C)[C@@H](COC)C(=O)N[C@@H]([C@@H](C)CC)C(=O)N(C)CC(=O)N(C)[C@H]2C/C=C\CCN(C2=O)[C@@H](Cc2ccc(C(F)(F)F)cc2)C(=O)N(C)CC(=O)N[C@@H](CCc2ccc(Cl)c(Cl)c2)C(=O)N2C[C@H](OC(C)C)C[C@H]2C(=O)NC2(CC(C)(C)C2)C(=O)N1C [PP2612],HRAS/KRAS (ratio of KD value with respect to GDP-bound HRAS wild-type protein to KD value with respect to KRAS),[1]; class symbols,A (a compound having 10 or more and less than 20 is denoted as A)
same,NRAS/KRAS (ratio of KD value with respect to GDP-bound NRAS wild-type protein to KD value with respect to KRAS),[2]; class symbols,AA (a compound having 20 or more is denoted as AA)
